“Also recorded” adds a separate entry of the source.
What was measured:
Aβ oligomers = Aβ oligomers (Homo sapiens, UniProt P05067); experiment: Analysis of binding property using QCM apparatus, sensor with Aβ oligomers fixed (Test Example 3); conditions: final concentration 10 μM in PBS
Description: (§1) Aβ oligomers or Aβ fibrils were fixed to the sensor portion of the QCM apparatus, and immersed in PBS in a glass container. Subsequently, Compound 8 or Compound 1 was added thereto to a final concentration of 10 μM, and a frequency change was recorded from immediately after the addition.

Aβ fibrils = biological target: T1, Aβ fibrils (Homo sapiens, UniProt P05067); experiment: Analysis of binding property using QCM apparatus, sensor with Aβ fibrils fixed (Test Example 3); conditions: final concentration 10 μM in PBS
T1 construct: Aβ oligomers or Aβ fibrils were fixed to the sensor portion of the QCM apparatus
T1 sequence (P05067 672-713 limits assumed): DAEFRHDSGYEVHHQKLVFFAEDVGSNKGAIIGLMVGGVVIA
Description: as §1

senile plaques = biological target: T2, senile plaques (Homo sapiens, UniProt P05067); experiment: 19F-MR image measurement of the brain after tail vein injection (Test Example 1); assay type: in vivo, mouse; conditions: 200 mg/kg tail vein, three-hour measurement beginning five hours after injection, 7T
T2 construct: Spots of amyloid β, which forms senile plaques; tissue Jackson Laboratory; host or cells: brain of live APP/PS1 double transgenic mice
T2 sequence (P05067 672-713 limits assumed): as above
Description: Compound 1 was weighed out in an amount of 10 mg, and 0.125 ml of 80% Tween-80 was added thereto, followed by dissolution using a glass rod under heating. Subsequently, 0.875 ml of physiological saline was added thereto to prepare a solution for injection (10 mg/ml). The solution was injected in a total amount of 200 mg/kg at […] to the tail vein of each of the genetically modified model mice of Alzheimer's disease (APP/PS1) and the normal wild mice (Wild), which had been subjected to pentobarbital sodium anesthesia. As the genetically modified model mice of Alzheimer's disease (APP/PS1), amyloid precursor protein and presenilin 1 double transgenic mice (APP/PS1, purchased from Jackson Laboratory and bred) were used. After the completion of the injection, under anesthesia, the head of each mouse was continuously evaluated every hour using an MRI apparatus, and all data were added to form images. The brain image of ^19F-MRI was obtained according to the chemical shift imaging method (CSI method). As the MRI apparatus, a 7T Unity Inova MR Scanner (produced by Varian Medical System) was used. Each of the genetically modified model mice of Alzheimer's disease (APP/PS1) and normal wild mice (Wild) were injected with Compound 1. […] FIGS. 1A and 1C are ^19F-MRI images, and FIGS. 1B and 1D are composite photos of ^19F-MRI and ^1H-MRI images.

Aβ oligomers, sequence (P05067 672-713 limits assumed): as above

Row | SMILES | binding to Aβ oligomers (conclusion from QCM) (Aβ oligomers) | QCM frequency change, sensor with Aβ fibrils fixed (Fibrillar) compared to Control (Aβ fibrils) | binding to Aβ fibrils (conclusion from QCM) (Aβ fibrils) | 19F-MR signals presumed to be senile plaques inside of the brain (senile plaques; genetically modified model mice of Alzheimer's disease (APP/PS1)) | 19F-MR signals presumed to be senile plaques inside of the brain (senile plaques; normal wild mouse (Wild))
1 | COC(=O)CCC(C(=O)/C=C/c1ccc(O)c(OC(F)(F)F)c1)C(=O)/C=C/c1ccc(O)c(OC(F)(F)F)c1 [Compound 8] | binding to both Aβ oligomers and Aβ fibrils | significant frequency reduction; also recorded: frequency reduction was observed | binding to both Aβ oligomers and Aβ fibrils |  | 
2 | CN(C)c1ccc(/C=C/c2nc3ccc(OCCOCCOCCOCCOCCOCCOCCOCC(F)(F)F)cc3o2)cc1 [Compound 1, 6-(3′,6′,9′,12′,15′,18′,21′-heptaoxa-23′,23′,23′-trifluorotricosanyloxy)-2-(4′-dimethylaminostyryl)benzoxazole] | does not bind to Aβ oligomers |  | binds to Aβ fibrils | signals presumed to be senile plaques were detected inside of the brain | such signals were not detected

— patent US20150352232A1, “MR IMAGING DIAGNOSTIC AGENT FOR INTRACTABLE NEUROLOGICAL DISEASE” (SHIGA UNIVERSITY OF MEDICAL SCIENCE, priority 2013, published 2015)
